The source made the active and inactive calls.
Assays:
[1] = molecular target: T1, Sentrin-specific protease 7 (Homo sapiens, UniProt Q9BQF6); test: inhibition of human SENP7 cleavage activity – biochemical, luminescence, SAR follow-up (AID 504497); format: functional
T1 sequence (Q9BQF6 whole entry): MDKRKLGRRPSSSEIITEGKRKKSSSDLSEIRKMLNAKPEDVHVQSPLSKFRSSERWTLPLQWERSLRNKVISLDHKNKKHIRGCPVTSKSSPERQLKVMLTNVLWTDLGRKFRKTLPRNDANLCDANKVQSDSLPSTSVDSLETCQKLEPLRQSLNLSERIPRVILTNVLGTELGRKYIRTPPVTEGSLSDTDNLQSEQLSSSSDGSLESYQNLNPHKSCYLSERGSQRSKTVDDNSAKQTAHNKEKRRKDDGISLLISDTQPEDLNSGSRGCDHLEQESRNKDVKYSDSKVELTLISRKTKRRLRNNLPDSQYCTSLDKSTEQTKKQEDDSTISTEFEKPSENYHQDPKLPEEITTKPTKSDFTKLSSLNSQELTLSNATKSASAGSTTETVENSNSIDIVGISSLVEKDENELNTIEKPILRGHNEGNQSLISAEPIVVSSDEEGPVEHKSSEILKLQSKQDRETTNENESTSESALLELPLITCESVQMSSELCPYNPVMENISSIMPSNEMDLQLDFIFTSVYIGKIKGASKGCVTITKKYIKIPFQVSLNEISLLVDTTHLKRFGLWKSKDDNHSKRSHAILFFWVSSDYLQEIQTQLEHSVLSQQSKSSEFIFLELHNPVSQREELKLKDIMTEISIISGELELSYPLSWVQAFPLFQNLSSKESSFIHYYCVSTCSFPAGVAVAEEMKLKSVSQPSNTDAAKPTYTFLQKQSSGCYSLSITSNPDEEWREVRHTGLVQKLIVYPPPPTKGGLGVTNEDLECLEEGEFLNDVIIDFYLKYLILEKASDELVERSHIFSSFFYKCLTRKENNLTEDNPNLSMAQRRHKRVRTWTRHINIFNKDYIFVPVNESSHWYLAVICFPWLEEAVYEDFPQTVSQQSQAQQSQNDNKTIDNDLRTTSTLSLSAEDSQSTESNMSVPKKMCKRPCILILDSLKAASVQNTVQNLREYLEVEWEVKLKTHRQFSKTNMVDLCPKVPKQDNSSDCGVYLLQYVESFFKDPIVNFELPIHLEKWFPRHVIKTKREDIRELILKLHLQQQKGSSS

[2] = molecular target: T2, Sentrin-specific protease 6 (Homo sapiens, UniProt Q9GZR1); test: SAR Analysis of small molecule inhibitors of Sentrin-specific protease 6 (SENP6) using a Luminescent assay. [Related pubchem assays (depositor defined):AID2582, AID2599]; format: functional
T2 sequence (Q9GZR1 whole entry): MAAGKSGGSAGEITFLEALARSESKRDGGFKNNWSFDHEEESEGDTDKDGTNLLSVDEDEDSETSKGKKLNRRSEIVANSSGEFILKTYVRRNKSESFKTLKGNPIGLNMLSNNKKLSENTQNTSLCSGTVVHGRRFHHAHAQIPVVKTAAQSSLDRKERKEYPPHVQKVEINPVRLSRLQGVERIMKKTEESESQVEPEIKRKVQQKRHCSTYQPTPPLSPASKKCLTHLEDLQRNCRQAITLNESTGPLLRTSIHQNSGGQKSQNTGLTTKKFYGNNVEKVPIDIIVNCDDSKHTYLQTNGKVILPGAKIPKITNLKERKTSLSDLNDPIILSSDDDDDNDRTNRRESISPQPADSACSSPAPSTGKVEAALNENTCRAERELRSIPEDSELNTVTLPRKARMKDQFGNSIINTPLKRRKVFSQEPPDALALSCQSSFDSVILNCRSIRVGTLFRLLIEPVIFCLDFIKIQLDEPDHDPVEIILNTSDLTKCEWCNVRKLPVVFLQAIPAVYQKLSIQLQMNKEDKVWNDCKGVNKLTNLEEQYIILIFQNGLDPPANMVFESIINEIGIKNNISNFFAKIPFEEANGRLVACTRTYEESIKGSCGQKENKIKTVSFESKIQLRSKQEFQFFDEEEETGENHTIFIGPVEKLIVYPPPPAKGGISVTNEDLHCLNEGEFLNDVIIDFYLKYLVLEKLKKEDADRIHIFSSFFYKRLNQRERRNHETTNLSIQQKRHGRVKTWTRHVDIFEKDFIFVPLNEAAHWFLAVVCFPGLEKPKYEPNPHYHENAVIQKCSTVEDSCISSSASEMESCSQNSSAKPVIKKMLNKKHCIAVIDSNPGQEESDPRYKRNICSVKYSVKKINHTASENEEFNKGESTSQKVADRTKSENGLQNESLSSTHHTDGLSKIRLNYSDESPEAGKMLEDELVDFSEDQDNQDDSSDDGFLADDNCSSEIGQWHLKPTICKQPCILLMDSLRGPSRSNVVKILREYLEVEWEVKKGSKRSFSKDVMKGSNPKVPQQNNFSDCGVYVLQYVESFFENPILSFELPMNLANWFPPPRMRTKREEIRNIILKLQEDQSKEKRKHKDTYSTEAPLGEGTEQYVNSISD

[3] = molecular target: T3, Sentrin-specific protease 8 (Homo sapiens, UniProt Q96LD8); test: inhibition of human SENP8 cleavage activity – biochemical, luminescence, SAR follow-up (AID 504501); format: functional
T3 sequence (Q96LD8 whole entry): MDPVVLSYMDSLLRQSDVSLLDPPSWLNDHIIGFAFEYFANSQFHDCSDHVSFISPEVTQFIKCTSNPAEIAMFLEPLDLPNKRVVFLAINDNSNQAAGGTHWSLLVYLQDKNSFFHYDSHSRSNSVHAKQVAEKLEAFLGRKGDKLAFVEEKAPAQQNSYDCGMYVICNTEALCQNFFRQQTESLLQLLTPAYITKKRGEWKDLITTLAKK

[4] = molecular target: T4, Caspase-3 (Homo sapiens, UniProt P42574); test: SAR Analysis of small molecule inhibitors of Sentrin-specific proteases (SENPs) using a Caspase-3 Selectivity assay. [Related pubchem assays (depositor defined):AID2540, AID2599, AID434973, AID489001]; format: functional
T4 sequence (P42574 whole entry): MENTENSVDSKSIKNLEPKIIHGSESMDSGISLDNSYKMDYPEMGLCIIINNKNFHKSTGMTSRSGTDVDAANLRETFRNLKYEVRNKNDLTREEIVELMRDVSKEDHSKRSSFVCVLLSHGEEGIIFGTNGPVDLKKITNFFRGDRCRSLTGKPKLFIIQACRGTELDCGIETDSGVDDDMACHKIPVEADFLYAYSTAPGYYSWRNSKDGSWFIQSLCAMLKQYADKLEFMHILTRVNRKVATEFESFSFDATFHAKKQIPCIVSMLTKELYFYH

[5] = Mcl1-dependent cancer cell viability – HMC-1-8 cells, luminescence, dry powder, selectivity assay for A1 inhibitor project, dose response (AID 504415); format: functional, cell-based; conditions: Homo sapiens
[6] = molecular target: Heat shock protein HSP 90-alpha (Homo sapiens, UniProt P07900); format: functional, organism-based
[7] = molecular target: T5, Polyadenylate-binding protein 1 (Homo sapiens, UniProt P11940); test: MLLE binding blockers, Cy5 peptide tracer – biochemical, fluorescence polarization, Cy5-PAM2 peptide, secondary, miRNA deadenylation inhibitor project, dose response (AID 602260); format: functional; conditions: read-out: IC50_Mean
[8] = test system: CHO; test: CHO cell viability loss, potency – luminescence, cytotoxicity control for TLR9-MyD88 binding inhibitor project, dose response (AID 588339); format: functional, cell-based, hamster; conditions: Cricetulus griseus;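 further: CHO cells stably coexpressing TLR9 and MyD88 fusions from primary screen; compound exposure lasted 48 hours before viability readout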
[9] = Fluorescence-based cell-based high throughput dose response assay for inhibitors of the interaction of nucleotide-binding oligomerization domain containing 2 (NOD2) and the receptor-interacting serine-threonine kinase 2 (RIPK2).; format: functional; conditions: Homo sapiens
[10] = non-specific 3'UTR reporter inhibition in Clone20-Shn3RL – cell-based, Renilla luciferase, cherry-picked, counter-screen for Shn3 inhibitor project, dose response (AID 624133); format: functional
[11] = loss of viability in HepG2 cells – cell-based, CellTiter-Glo, cherry-picked, cytotoxicity control for Shn3 inhibitor project, dose response (AID 624134); format: functional
[12] = molecular target: T6, Beta Lactamase (Pseudomonas aeruginosa, UniProt Q932Y6); test: BLA reporter interference, concentration series – BLA reporter cells, FRET fluorescence, artefact control for TLR9-MyD88 binding inhibitor project, dose response (AID 588341); format: cell-based;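 further: cell based assay in CHO-K1 cells stably expressing beta-lactamase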
[13] = molecular target: T5, Polyadenylate-binding protein 1; test: MLLE domain peptide-binding blockers, IC50 – biochemical, fluorescence polarization, FITC-PAM2 peptide, dose response (AID 602259); format: functional; conditions: read-out: IC50_Mean
[14] = molecular target: Beta-galactosidase (Escherichia coli, UniProt Q8VNN2); test: detection-enzyme interference by beta-gal modulators – biochemical, E. coli enzyme, set 3, artefact control for CCR6 antagonist project, dose response (AID 504712); format: functional
[15] = reduction of Shn3 3'UTR-driven luciferase in osteoblasts – cell-based, Clone20 osteoblasts, firefly luciferase, cherry-picked, dose response (AID 624132); format: functional;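 further: firefly luciferase luminescence from reporter carrying the Shn3 3'UTR in osteoblasts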
[16] = molecular target: T6, Beta Lactamase; test: BLA reporter interference, concentration series – BLA reporter cells, FRET fluorescence, artefact control for NOD2-RIPK2 interaction inhibitor project, dose response (AID 651552); format: functional, cell-based
[17] = PAR1 agonist-induced platelet activation inhibition – cell-based, fluorescence, flow cytometry, human platelets, dose response (AID 2511); format: functional
[18] = Luminescence Cell-Based Dose Response Follow up to Identify Inhibitors of Platelet Dense Granule Release. [Related pubchem assays (depositor defined):AID1663, AID1678, AID2398]; format: functional
[19] = Luminescence Cell-Based Dose Confirmation HTS to Identify Inhibitors of Platelet Dense Granule Release. [Related pubchem assays: 1663 (Primary HTS), 1678 (Summary of Project)]; format: functional
[20] = blockers of SFLLRN-triggered platelet ATP secretion – cell-based, human platelets, luminescence, dry powder, dose response (AID 493100); format: functional
[21] = molecular target: Luciferin 4-monooxygenase (Photinus pyralis, UniProt P08659); test: inhibition of purified Photinus pyralis luciferase – biochemical, luminescence, dose response (AID 1891)
[22] = molecular target: T7, Orexin receptor type 2 (Homo sapiens, UniProt O43614); test: Counterscreen assay for antagonists of the orexin 1 receptor (OX1R; HCRTR1): Homogeneous Time Resolved Fluorescence (HTRF)-based cell-based dose response assay for antagonists of the orexin 2 receptor (OX2R; HCRTR2), run by assay provider.; format: functional
[23] = molecular target: T7, Orexin receptor type 2; test: Counterscreen assay for antagonists of the orexin 1 receptor (OX1R; HCRTR1): Fluorescence-based cell-based dose response assay for antagonists of the orexin 2 receptor (OX2R; HCRTR2), run by assay provider.; format: functional
[24] = test system: CHO-K1; test: Counterscreen for antagonists of the orexin 1 receptor (OX1R; HCRTR1): Homogeneous time resolved fluorescence (HTRF)-based cell-based dose response assay to identify antagonists of the parental CHO-K1 cell line. [Related pubchem assays (depositor defined):AID434989, AID435008, AID463079, AID485270, AID492963, AID492964, AID492965, AID493232, AID504699, AID504701]; format: functional; conditions: Cricetulus griseus;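 further: potency for inhibition of ATP-stimulated IP1 production as antagonists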
[25] = molecular target: T8, Orexin/Hypocretin receptor type 1 (Homo sapiens, UniProt O43613); test: Homogeneous Time Resolved Fluorescence (HTRF)-based cell-based high throughput dose response assay for antagonists of the orexin 1 receptor (OX1R; HCRTR1). [Related pubchem assays (depositor defined):AID434989, AID435008, AID463079, AID485270, AID492963, AID492964, AID492965, AID493232, AID504717, AID504718]; format: functional
[26] = Counterscreen for antagonists of the orexin 1 receptor (OX1R; HCRTR1): Fluorescence-based cell-based high throughput dose response assay to identify antagonists of the parental CHO cell line. [Related pubchem assays (depositor defined):AID434989, AID435008, AID463079, AID485270, AID492963, AID492964, AID492965, AID493232, AID504699, AID504701]; format: functional
[27] = molecular target: T8, Orexin/Hypocretin receptor type 1; test: Fluorescence-based cell-based high throughput dose response assay for antagonists of the orexin 1 receptor (OX1R; HCRTR1). [Related pubchem assays (depositor defined):AID434989, AID435008, AID463079, AID485270, AID492963, AID492964, AID492965, AID493232, AID504717, AID504718]; format: functional
[28] = molecular target: Cytochrome P450 2C9 (Homo sapiens, UniProt P11712)
Sequence of Cytochrome P450 2C9 (P11712 whole entry): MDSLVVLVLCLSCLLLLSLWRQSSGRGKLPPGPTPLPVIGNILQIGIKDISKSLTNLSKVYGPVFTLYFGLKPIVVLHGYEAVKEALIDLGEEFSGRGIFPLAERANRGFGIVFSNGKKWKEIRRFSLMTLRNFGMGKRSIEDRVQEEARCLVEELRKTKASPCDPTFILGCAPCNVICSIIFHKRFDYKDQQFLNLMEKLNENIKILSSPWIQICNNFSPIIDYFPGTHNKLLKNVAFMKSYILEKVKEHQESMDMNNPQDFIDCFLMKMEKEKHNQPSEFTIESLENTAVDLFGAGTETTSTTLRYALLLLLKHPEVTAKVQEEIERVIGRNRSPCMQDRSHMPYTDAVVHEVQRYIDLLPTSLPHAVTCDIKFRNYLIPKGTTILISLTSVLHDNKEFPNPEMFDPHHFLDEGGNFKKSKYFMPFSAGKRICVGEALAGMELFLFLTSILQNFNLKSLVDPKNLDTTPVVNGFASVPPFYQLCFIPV

T7 sequence (O43614 whole entry): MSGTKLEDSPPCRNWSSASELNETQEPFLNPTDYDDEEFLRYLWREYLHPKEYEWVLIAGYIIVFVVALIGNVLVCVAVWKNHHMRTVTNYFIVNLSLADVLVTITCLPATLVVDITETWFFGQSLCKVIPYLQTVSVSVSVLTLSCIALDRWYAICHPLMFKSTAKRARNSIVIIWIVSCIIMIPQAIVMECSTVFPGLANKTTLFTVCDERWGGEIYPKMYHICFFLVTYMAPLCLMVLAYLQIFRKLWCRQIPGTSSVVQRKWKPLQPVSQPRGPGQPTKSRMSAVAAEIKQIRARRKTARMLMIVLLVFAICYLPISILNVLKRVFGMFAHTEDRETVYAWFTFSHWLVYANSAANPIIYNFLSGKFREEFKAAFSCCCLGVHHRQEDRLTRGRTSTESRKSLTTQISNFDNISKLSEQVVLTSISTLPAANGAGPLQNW
T6 sequence (Q932Y6 whole entry, the tested form may be a part): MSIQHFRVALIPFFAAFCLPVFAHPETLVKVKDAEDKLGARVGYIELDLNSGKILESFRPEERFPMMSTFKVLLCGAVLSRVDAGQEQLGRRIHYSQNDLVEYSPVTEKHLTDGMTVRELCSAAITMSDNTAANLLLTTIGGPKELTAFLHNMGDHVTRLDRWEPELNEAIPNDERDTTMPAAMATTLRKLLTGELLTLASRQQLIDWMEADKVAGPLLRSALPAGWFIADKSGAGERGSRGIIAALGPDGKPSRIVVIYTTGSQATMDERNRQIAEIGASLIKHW
T5 sequence (P11940 whole entry, the tested form may be a part): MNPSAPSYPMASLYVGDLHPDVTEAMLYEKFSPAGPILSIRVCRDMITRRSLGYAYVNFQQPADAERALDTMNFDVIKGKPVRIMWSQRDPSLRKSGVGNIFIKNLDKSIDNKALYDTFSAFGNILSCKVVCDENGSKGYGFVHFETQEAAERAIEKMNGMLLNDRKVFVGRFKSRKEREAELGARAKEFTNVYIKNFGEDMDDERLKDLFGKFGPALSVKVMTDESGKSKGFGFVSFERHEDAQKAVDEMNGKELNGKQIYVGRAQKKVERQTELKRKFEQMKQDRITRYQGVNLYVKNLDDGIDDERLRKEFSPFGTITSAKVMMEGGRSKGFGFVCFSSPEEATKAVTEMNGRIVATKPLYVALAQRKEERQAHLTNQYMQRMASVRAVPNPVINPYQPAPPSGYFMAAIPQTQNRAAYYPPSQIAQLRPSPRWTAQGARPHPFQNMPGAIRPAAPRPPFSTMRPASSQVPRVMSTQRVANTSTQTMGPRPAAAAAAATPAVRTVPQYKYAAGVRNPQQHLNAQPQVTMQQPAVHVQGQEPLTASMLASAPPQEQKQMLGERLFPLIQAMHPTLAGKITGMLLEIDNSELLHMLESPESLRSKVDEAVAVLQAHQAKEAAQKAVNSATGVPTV
T8 sequence (O43613 whole entry): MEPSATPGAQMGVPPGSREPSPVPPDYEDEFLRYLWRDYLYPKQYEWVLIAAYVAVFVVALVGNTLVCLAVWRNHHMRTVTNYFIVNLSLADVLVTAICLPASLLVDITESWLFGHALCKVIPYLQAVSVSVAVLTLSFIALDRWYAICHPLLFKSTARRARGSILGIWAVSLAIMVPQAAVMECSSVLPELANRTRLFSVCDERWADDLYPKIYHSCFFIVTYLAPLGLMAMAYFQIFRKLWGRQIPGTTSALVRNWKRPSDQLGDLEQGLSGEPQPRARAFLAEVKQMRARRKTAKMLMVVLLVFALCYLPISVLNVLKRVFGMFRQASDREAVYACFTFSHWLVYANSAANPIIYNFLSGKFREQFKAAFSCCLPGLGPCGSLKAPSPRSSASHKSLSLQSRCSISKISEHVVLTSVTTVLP
Sequence of Luciferin 4-monooxygenase (P08659 whole entry): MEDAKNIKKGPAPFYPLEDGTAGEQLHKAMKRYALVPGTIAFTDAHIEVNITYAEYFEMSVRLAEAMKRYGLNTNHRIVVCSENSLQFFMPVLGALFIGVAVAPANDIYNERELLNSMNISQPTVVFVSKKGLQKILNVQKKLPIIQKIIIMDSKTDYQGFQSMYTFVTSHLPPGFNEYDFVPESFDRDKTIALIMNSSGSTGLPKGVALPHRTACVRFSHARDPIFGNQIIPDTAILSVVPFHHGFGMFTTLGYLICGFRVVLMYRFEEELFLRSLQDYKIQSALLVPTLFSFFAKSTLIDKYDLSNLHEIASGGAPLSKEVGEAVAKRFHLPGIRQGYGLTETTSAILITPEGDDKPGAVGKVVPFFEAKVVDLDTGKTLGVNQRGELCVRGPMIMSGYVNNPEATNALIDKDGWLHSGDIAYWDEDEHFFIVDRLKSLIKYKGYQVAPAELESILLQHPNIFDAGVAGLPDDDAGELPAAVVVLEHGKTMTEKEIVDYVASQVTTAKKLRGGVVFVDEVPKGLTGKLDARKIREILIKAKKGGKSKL
Sequence of Beta-galactosidase (Q8VNN2 whole entry): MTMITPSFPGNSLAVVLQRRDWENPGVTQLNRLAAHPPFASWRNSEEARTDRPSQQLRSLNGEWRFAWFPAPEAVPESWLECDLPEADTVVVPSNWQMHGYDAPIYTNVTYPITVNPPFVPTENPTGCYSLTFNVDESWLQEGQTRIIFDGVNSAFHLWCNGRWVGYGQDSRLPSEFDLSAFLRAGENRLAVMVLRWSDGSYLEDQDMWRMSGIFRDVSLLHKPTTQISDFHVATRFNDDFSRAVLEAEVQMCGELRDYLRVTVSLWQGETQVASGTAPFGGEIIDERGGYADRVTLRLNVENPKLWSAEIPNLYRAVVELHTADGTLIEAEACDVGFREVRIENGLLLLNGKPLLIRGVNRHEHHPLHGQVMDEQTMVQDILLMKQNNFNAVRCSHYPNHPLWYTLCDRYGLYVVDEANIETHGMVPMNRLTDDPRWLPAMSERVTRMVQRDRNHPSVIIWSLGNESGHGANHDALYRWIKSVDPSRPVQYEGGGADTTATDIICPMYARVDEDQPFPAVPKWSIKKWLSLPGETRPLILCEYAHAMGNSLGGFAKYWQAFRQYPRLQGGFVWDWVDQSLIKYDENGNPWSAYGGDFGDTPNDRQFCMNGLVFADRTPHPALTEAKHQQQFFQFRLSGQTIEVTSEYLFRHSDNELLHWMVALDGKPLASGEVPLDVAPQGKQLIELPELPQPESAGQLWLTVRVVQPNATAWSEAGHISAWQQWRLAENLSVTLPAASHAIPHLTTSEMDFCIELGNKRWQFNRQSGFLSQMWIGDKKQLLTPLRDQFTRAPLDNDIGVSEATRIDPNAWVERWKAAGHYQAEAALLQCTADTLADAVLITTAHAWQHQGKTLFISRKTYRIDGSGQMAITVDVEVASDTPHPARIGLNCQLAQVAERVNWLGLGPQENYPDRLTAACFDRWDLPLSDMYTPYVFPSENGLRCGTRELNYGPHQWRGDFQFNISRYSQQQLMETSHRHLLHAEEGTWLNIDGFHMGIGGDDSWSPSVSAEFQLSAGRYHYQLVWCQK

CC(C)(C)CC(=O)Nc1ccc(-c2nc3cc(Cl)ccc3s2)cc1
IC50 [1]: > 99 µM (inactive) | IC50 [2]: > 99 µM (inactive) | IC50 [3]: > 99 µM (inactive) | IC50 [4]: > 99 µM (inactive)

Cn1c(=O)c([N+](=O)[O-])c(Nc2ccc(Cl)cc2)c2ccccc21
AC50 [5]: > 350 µM (inactive)

O=C(c1ccccc1)c1ccccc1N1C(=O)C=CC1=O
AC50 [6]: 2.21 µM (active) | IC50 [7]: > 66 µM (inactive) | IC50 [8]: 2.78 µM (active) | IC50 [9]: 1.99 µM (active) | AC50 [10]: 12.5 µM (active) | AC50 [11]: 24.6 µM (active) | IC50 [12]: 15.3 µM (inactive) | IC50 [13]: > 66 µM (inactive) | IC50 [14]: > 66.6 µM (inactive) | AC50 [15]: 16.7 µM (active) | IC50 [16]: 15.5 µM (inactive)

Cc1ccc(-n2c(N)c(C#N)c(-c3ccc(Cl)cc3)c(C#N)c2=O)cc1
EC50 [17]: < 3 µM (active) | EC50 [18]: 0.623 µM (active) | EC50 [19]: 4.94 µM (active) | AC50 [20]: 14.3 µM (active) | EC50 [21]: > 112 µM (not active)

CCn1c(SCC(=O)c2ccc3ccccc3c2)nnc1-c1cccs1
IC50 [22]: > 50 µM (inactive) | IC50 [23]: > 88.8 µM (inactive) | IC50 [24]: > 66.2 µM (inactive) | IC50 [25]: 6.66 µM (active) | IC50 [26]: > 49.8 µM (inactive) | IC50 [27]: 17.6 µM (inactive) | AC50 [28]: 17.8 µM (inconclusive)
